Data published in PubChem BioAssay AID330 (DTP/NCI, 2004).
Where “and” joins values, the source holds several entries; their conditions need not be identical. Equal values may be shown once. Toxic doses and inconclusive results are not listed. Rule for the calls: active = survival T/C of 150% or more; inactive = T/C below 125% in these data.

System: P388 leukemia ip, CD2F1 mice, survival T/C
Experiment: NCI In Vivo Anticancer Drug Screen. Data for tumor model P388 Leukemia (intraperitoneal) in CD2F1 (CDF1) mice
Details: endpoint: median survival time, higher = longer survival
Method in brief: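 Mice carrying the transplanted tumor received test compound or vehicle. Survival was recorded in each group, and the value is the treated-group measurement divided by that of the vehicle-treated control group.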

[1] = dose: 100.0 mg/kg/injection, schedule: Q04DX002 (ip), vehicle: Klucel (hydroxypropylcellulose) (HPC)
[2] = dose: 200.0 mg/kg/injection, schedule: Q04DX002 (ip), vehicle: Klucel (hydroxypropylcellulose) (HPC)
[3] = dose: 400.0 mg/kg/injection, schedule: Q04DX002 (ip), vehicle: Klucel (hydroxypropylcellulose) (HPC)
[4] = dose: 60.0 mg/kg/injection, schedule: Q01DX005 (ip), vehicle: saline with Tween-80
[5] = dose: 120.0 mg/kg/injection, schedule: Q01DX005 (ip), vehicle: saline with Tween-80
[6] = dose: 240.0 mg/kg/injection, schedule: Q01DX005 (ip), vehicle: saline with Tween-80
[7] = dose: 50.0 mg/kg/injection, schedule: Q01DX005 (ip), vehicle: saline with Tween-80
[8] = dose: 100.0 mg/kg/injection, schedule: Q01DX005 (ip), vehicle: saline with Tween-80
[9] = dose: 200.0 mg/kg/injection, schedule: Q01DX005 (ip), vehicle: saline with Tween-80
[10] = dose: 60.0 mg/kg/injection, schedule: Q01DX005 (ip), vehicle: Klucel (hydroxypropylcellulose) (HPC)

Measured: T/C

S=C(N/N=C\c1nc2ccccc2c2ccccc12)Nc1ccccc1
inactive: [1] 99 % of control | [2] 94 % of control | [3] 93 % of control

CC[As](CC)SC1CC2C3CCC4=CC(=O)C=CC4(C)C3C(=O)CC2(C)C1C(=O)CC(C)=O (configuration not stated)
inactive: dose: 50.0 mg/kg/injection, schedule: Q01DX005 (ip), vehicle: Klucel (hydroxypropylcellulose) (HPC) 101 % of control | dose: 100.0 mg/kg/injection, schedule: Q01DX005 (ip), vehicle: Klucel (hydroxypropylcellulose) (HPC) 103 % of control | dose: 200.0 mg/kg/injection, schedule: Q01DX005 (ip), vehicle: Klucel (hydroxypropylcellulose) (HPC) 94 % of control

COC1=C(C2=C(OC)C(=O)c3cc4c(c(O)c3C2=O)C(=O)OC(C)C4)C(=O)c2c(cc3c(c2O)C(=O)OC(C)C3)C1=O (configuration not stated)
inactive: dose: 6.25 mg/kg/injection, schedule: Q01DX009 (ip), vehicle: saline 100 % of control | dose: 12.5 mg/kg/injection, schedule: Q01DX009 (ip), vehicle: saline 98 % of control | dose: 25.0 mg/kg/injection, schedule: Q01DX009 (ip), vehicle: saline 103 % of control

CCN(CC)C(=S)S
inactive: dose: 100.0 mg/kg/injection, schedule: Q04DX003 (ip), vehicle: saline sonified 95 % of control | dose: 200.0 mg/kg/injection, schedule: Q04DX003 (ip), vehicle: saline sonified 100 % of control | dose: 400.0 mg/kg/injection, schedule: Q04DX003 (ip), vehicle: saline sonified 90 % of control

Cc1ccc(Nc2nnc(CSc3ccc(Cl)cc3)s2)c(S(=O)(=O)O)c1
inactive: [4] 104 % of control | [5] 94 % of control | [6] 104 % of control

O=C(O)C1CCC2(CC1)SCC1(CS2)CSC2(CCC(C(=O)O)CC2)SC1 (configuration not stated)
inactive: dose: 7.5 mg/kg/injection, schedule: Q01DX009 (ip), vehicle: saline with Tween-80 104 % of control | dose: 15.0 mg/kg/injection, schedule: Q01DX009 (ip), vehicle: saline with Tween-80 99 % of control | dose: 30.0 mg/kg/injection, schedule: Q01DX009 (ip), vehicle: saline with Tween-80 107 % of control

CC12CCC(=O)OC1(CO)C([Se]c1ccccc1)CC2CC(N)=O (configuration not stated)
inactive: [7] 93 % of control | [8] 91 % of control | [9] 91 % of control

O=C(CNC(=O)OCc1ccccc1)OC(=O)CNC(=O)OCc1ccccc1
inactive: [1] 96 % of control | [2] 93 % of control | [3] 93 % of control

CC1OC(Nc2ncnc3nc[nH]c23)C(O)C(O)C1NC(=O)CNC(=O)CCCCCCCCC/C=C\C(C)(C)C (configuration not stated)
inactive: dose: 0.25 mg/kg/injection, schedule: Q01DX009 (ip), vehicle: distilled water + Tween-80 113 % of control | dose: 0.5 mg/kg/injection, schedule: Q01DX009 (ip), vehicle: distilled water + Tween-80 113 % of control and 123 % of control | dose: 4.0 mg/kg/injection, schedule: Q01DX009 (ip), vehicle: distilled water + Tween-80 100 % of control

C=CC[P+](CC[P+](CC=C)(c1ccccc1)c1ccccc1)(c1ccccc1)c1ccccc1
inactive: dose: 6.25 mg/kg/injection, schedule: Q04DX002 (ip), vehicle: saline 102 % of control | dose: 12.5 mg/kg/injection, schedule: Q04DX002 (ip), vehicle: saline 96 % of control

Cc1ccc(C(O)(C(F)(F)F)C(O)(c2ccc(C)cc2)C(F)(F)F)cc1 (configuration not stated)
inactive: dose: 50.0 mg/kg/injection, schedule: Q01DX009 (ip), vehicle: saline with Tween-80 107 % of control and 100 % of control | dose: 100.0 mg/kg/injection, schedule: Q01DX009 (ip), vehicle: saline with Tween-80 107 % of control and 104 % of control | dose: 200.0 mg/kg/injection, schedule: Q01DX009 (ip), vehicle: saline with Tween-80 101 % of control and 105 % of control

O.O.[Cu+2].[Cu+2].[NH-]CCC(=O)[N-]C(Cc1cnc[nH]1)C(=O)O.[NH-]CCC(=O)[N-]C(Cc1cnc[nH]1)C(=O)O (configuration not stated)
inactive: dose: 6.25 mg/kg/injection, schedule: Q01DX005 (ip), vehicle: Klucel (hydroxypropylcellulose) (HPC) 98 % of control | dose: 12.5 mg/kg/injection, schedule: Q01DX005 (ip), vehicle: Klucel (hydroxypropylcellulose) (HPC) 97 % of control | dose: 25.0 mg/kg/injection, schedule: Q01DX005 (ip), vehicle: Klucel (hydroxypropylcellulose) (HPC) 106 % of control

CN1CCC(CC2CCCCN2)CC1 (configuration not stated)
inactive: dose: 6.25 mg/kg/injection, schedule: Q01DX009 (ip), vehicle: distilled water + Tween-80 99 % of control | dose: 12.5 mg/kg/injection, schedule: Q01DX009 (ip), vehicle: distilled water + Tween-80 105 % of control and 95 % of control | dose: 25.0 mg/kg/injection, schedule: Q01DX009 (ip), vehicle: distilled water + Tween-80 98 % of control and 122 % of control | dose: 50.0 mg/kg/injection, schedule: Q01DX009 (ip), vehicle: distilled water + Tween-80 108 % of control and 116 % of control | dose: 100.0 mg/kg/injection, schedule: Q01DX009 (ip), vehicle: distilled water + Tween-80 103 % of control

CSc1ncc2c(=O)c3c(ccc4ccccc43)oc2n1
inactive: dose: 3.12 mg/kg/injection, schedule: Q01DX009 (ip), vehicle: saline with Tween-80 93 % of control | dose: 6.25 mg/kg/injection, schedule: Q01DX009 (ip), vehicle: saline with Tween-80 102 % of control | dose: 12.5 mg/kg/injection, schedule: Q01DX009 (ip), vehicle: saline with Tween-80 96 % of control

O=C(NO)/C(CC(=O)c1ccccc1O)=N\O
inactive: dose: 60.0 mg/kg/injection, schedule: Q01DX005 (ip), vehicle: saline 100 % of control | dose: 120.0 mg/kg/injection, schedule: Q01DX005 (ip), vehicle: saline 111 % of control | dose: 240.0 mg/kg/injection, schedule: Q01DX005 (ip), vehicle: saline 103 % of control

O=C(Nc1ccccc1)Sc1ccc(Cl)cc1
inactive: dose: 25.0 mg/kg/injection, schedule: Q01DX005 (ip), vehicle: saline with Tween-80 115 % of control | [7] 121 % of control | [8] 115 % of control and 123 % of control | [9] 124 % of control

O=S(=O)(OC(=C(c1ccccc1)c1ccccc1)c1ccccc1)C(F)(F)F
inactive: dose: 50.0 mg/kg/injection, schedule: Q01DX009 (ip), vehicle: olive oil, sesame oil, peanut oil 99 % of control | dose: 100.0 mg/kg/injection, schedule: Q01DX009 (ip), vehicle: olive oil, sesame oil, peanut oil 107 % of control | dose: 200.0 mg/kg/injection, schedule: Q01DX009 (ip), vehicle: olive oil, sesame oil, peanut oil 112 % of control

COc1cc(CC2COCC2Cc2ccc3c(c2)OCO3)cc(OC)c1OC (configuration not stated)
inactive: dose: 1.25 mg/kg/injection, schedule: Q04DX002 (ip), vehicle: acetone 101 % of control and 103 % of control | dose: 2.5 mg/kg/injection, schedule: Q04DX002 (ip), vehicle: acetone 101 % of control and 96 % of control and 104 % of control | dose: 5.0 mg/kg/injection, schedule: Q04DX002 (ip), vehicle: acetone 93 % of control and 96 % of control and 103 % of control

COc1cc(C(c2c(O)c3ccccc3oc2=O)N2CCCC2)cc(OC)c1OC (configuration not stated)
inactive: [4] 107 % of control | [5] 101 % of control | [6] 104 % of control

c1ccc2c(SCCNCCSc3c4ccccc4nc4ccccc34)c3ccccc3nc2c1
inactive: [10] 106 % of control | dose: 120.0 mg/kg/injection, schedule: Q01DX005 (ip), vehicle: Klucel (hydroxypropylcellulose) (HPC) 105 % of control | dose: 240.0 mg/kg/injection, schedule: Q01DX005 (ip), vehicle: Klucel (hydroxypropylcellulose) (HPC) 106 % of control

Nc1[nH]c(=S)[nH]c(=O)c1N=Cc1ccc2c(c1)OCO2
inactive: dose: 100.0 mg/kg/injection, schedule: Q04DX003 (ip), vehicle: Klucel (hydroxypropylcellulose) (HPC) 108 % of control and 113 % of control | dose: 200.0 mg/kg/injection, schedule: Q04DX003 (ip), vehicle: Klucel (hydroxypropylcellulose) (HPC) 112 % of control and 114 % of control

NC(=S)c1cc(Cl)cc(Cl)c1N
inactive: dose: 3.75 mg/kg/injection, schedule: Q01DX005 (ip), vehicle: Klucel (hydroxypropylcellulose) (HPC) 100 % of control | dose: 7.5 mg/kg/injection, schedule: Q01DX005 (ip), vehicle: Klucel (hydroxypropylcellulose) (HPC) 98 % of control | dose: 15.0 mg/kg/injection, schedule: Q01DX005 (ip), vehicle: Klucel (hydroxypropylcellulose) (HPC) 99 % of control and 96 % of control | dose: 30.0 mg/kg/injection, schedule: Q01DX005 (ip), vehicle: Klucel (hydroxypropylcellulose) (HPC) 94 % of control | [10] 92 % of control

Cc1cc2cc3c(c(C(=O)O)c2o1)C(=O)c1ccc2ccccc2c1C3
inactive: [4] 97 % of control | [5] 101 % of control | [6] 94 % of control

CCOC(=O)c1cnc(NCCCCCCCCNc2ncc(C(=O)OCC)c(=O)[nH]2)[nH]c1=O
inactive: dose: 50.0 mg/kg/injection, schedule: Q01DX009 (ip), vehicle: saline 103 % of control | dose: 100.0 mg/kg/injection, schedule: Q01DX009 (ip), vehicle: saline 102 % of control | dose: 200.0 mg/kg/injection, schedule: Q01DX009 (ip), vehicle: saline 90 % of control and 97 % of control

CC(/C=C/c1ccccc1)=N\NS(=O)(=O)c1ccc(C)cc1
inactive: [7] 95 % of control | [8] 91 % of control
